Assay results: US11180487B2, “Substituted cyanoindoline derivatives as NIK inhibitors” (Janssen Pharmaceutica NV, priority 2016, dated 2021)
Read-outs that look alike come from different tables or passages of the source.

Tests used:
[1] = target: recombinant human NF-kappaB-inducing kinase (NIK/MAP3K14) (Homo sapiens, UniProt Q99558); test: Inhibition of auto-phosphorylation of recombinant human NIK/MAP3K14 activity (AlphaScreen), Biological Assay A; type: biochemical; conditions: averaged values over all measurements on all batches
Chain of recombinant human NF-kappaB-inducing kinase (NIK/MAP3K14) (Q99558 whole entry): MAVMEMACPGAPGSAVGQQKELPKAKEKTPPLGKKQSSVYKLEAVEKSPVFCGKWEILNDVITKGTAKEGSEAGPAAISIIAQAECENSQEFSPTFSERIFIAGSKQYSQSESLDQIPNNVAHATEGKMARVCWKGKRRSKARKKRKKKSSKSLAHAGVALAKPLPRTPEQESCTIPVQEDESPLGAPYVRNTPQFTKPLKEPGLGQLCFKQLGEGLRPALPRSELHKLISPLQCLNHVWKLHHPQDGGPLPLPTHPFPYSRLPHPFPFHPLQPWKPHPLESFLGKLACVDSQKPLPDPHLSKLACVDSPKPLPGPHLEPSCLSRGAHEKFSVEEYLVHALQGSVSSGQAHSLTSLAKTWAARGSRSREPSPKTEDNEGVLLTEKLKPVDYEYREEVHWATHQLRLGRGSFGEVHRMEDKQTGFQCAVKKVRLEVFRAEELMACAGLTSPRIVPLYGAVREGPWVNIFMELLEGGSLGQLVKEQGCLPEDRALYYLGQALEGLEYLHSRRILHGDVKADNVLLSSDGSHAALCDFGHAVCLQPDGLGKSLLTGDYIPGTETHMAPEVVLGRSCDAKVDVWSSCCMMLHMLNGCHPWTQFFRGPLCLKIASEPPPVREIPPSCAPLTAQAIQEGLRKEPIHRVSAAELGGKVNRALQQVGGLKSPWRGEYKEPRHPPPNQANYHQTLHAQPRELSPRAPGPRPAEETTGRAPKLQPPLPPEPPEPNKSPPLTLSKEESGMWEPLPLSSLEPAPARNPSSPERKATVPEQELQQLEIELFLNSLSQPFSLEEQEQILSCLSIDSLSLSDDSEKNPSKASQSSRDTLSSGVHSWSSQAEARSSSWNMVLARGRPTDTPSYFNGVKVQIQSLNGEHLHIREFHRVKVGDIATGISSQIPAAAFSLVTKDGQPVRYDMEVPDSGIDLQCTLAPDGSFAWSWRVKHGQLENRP
Protocol: Inhibition of Auto-Phosphorylation of Recombinant Human NF-kappaB-Inducing Kinase (NIK/MAP3K14) Activity (AlphaScreen®)
NIK/MAP3K14 auto-phosphorylation activity was measured using the AlphaScreen® (αscreen) format (Perkin Elmer). All compounds tested were dissolved in dimethyl sulfoxide (DMSO) and further dilutions were made in assay buffer. Final DMSO concentration was 1% (v/v) in assays. Assay buffer was 50 mM Tris pH 7.5 containing 1 mM EGTA (ethylene glycol tetraacetic acid), 1 mM DTT (dithiothreitol), 0.1 mM Na3VO4, 5 mM MgCl2, 0.01% Tween® 20. Assays were carried out in 384 well Alphaplates (Perkin Elmer). Incubations consisted of compound, 25 microM Adenosine-5′-triphosphate (ATP), and 0.2 nM NIK/MAP3K14. Incubations were initiated by addition of GST-tagged NIK/MAP3K14 enzyme, carried out for 1 h at 25° C. and terminated by addition of stop buffer containing anti-phospho-IKK Ser176/180 antibody. Protein A Acceptor and Glutathione-Donor beads were added before reading using an EnVision® Multilabel Plate Reader (Perkin Elmer). Signal obtained in the wells containing blank samples was subtracted from all other wells and IC50's were determined by fitting a sigmoidal curve to % inhibition of control versus Log10 compound concentration.

[2] = system: JJN-3 (NIK translocated) multiple myeloma cells; test: Antiproliferative activity on JJN-3 multiple myeloma cells (CellTiter-Glo, 96 hr), Biological Assay C; type: cell-based, human; conditions: JJN-3 (NIK translocated) cells, averaged values, read-out: JJN-3 Proliferation inhibition (IC50 (nM))
Protocol: (§1) Determination of Antiproliferative Activity on JJN-3 (NIK Translocated) and KMS12-BM (NIK WT) Multiple Myeloma Cells
(§2) All compounds tested were dissolved in DMSO and further dilutions were made in culture medium. Final DMSO concentration was 0.3% (v/v) in cell proliferation assays. Viability was assessed using CellTiter-Glo cell viability assay kit (Promega). The human JJN-3 and KMS12-BM cells (DSMZ) were cultured in RPMI 1640 medium supplemented with 2 mM L-glutamine, and 10% fetal calf serum (PAA). Cells were routinely kept as suspension cells at 37° C. in a humidified 5% CO2 atmosphere. Cells were passaged at a seeding density of 0.2×10^6/ml twice a week. Cells were seeded in black tissue culture treated 96-well plates (Perkin Elmer). Densities used for plating ranged from 15000 (JJN3) to 20000 (KMS12BM) cells per well in a total volume of 135 μl medium. Drugs and/or solvents were added (15 μl) to a final volume of 150 μl. Following 96 hr of treatment, plates were removed from the incubator and allowed to equilibrate to room temperature for approx 10 min. 75 μl CellTiter-Glo reagent was added to each well that was then covered (Perkin Elmer Topseal) and shaken on plate shaker for 10 min. Luminescence was measured on a HTS Topcount (Perkin Elmer).
(§3) Within an experiment, the results for each treatment were the mean of 2 replicate wells. For initial screening purposes, compounds were tested using a 9 point dilution curve (serial 1:3 dilutions). For each experiment, controls (containing no drug) and a blank incubation (containing cells read at the time of compound addition) were run in parallel. The blank value was subtracted from all control and sample values. For each sample, the mean value for cell growth (in relative light units) was expressed as a percentage of the mean value for cell growth of the control.

[3] = system: KMS12-BM (NIK WT) multiple myeloma cells; test: Antiproliferative activity on KMS12-BM multiple myeloma cells (CellTiter-Glo, 96 hr), Biological Assay C; type: cell-based, human; conditions: averaged values, read-out: KMS-12 Proliferation inhibition (IC50 (nM))
Protocol: as §1, §2, §3

| SMILES | melting point [°C] | IC50 [1] [nM] | IC50 ([2]; Homo sapiens, JJN-3, 96 h) [nM] | IC50 ([3]; Homo sapiens, KMS-12-BM, 96 h) [nM] | IC50 [3] [nM] | IC50 [2] [nM] |
| --- | --- | --- | --- | --- | --- | --- |
| COc1cc(C(=O)N2CC3C(CO)C3C2)c(Cl)cc1Nc1nccc(-c2cc(C#N)c3c(c2)C(C)(C)CN3)n1 (stereo not drawn) [Compound 117] | – | 4.7 | 19 | 1550 | – | – |
| CN1CCCC(Oc2ccc(Cl)cc2Nc2nccc(-c3cc(C#N)c4c(c3)C(C)(CO)CN4)n2)C1 (mixture of isomers) [Compound 39] | 173 | 7.4 | 87 | 2340 | – | – |
| CCN1CCN(c2cc(C)c(Nc3nccc(-c4cc(C#N)c5c(c4)C(C)(C)CN5)n3)cc2Cl)CC1 [Compound 91] | – | 7.2 | ~107 | > 10000 | – | – |
| CC1(C)CNc2c(C#N)cc(-c3ccnc(Nc4cc(Cl)ccc4S(C)(=O)=O)n3)cc21 [Compound 90] | – | 219 | > 10000 | > 10000 | – | – |
| COc1cc(C(=O)NC2CC(F)(F)C2)c(Cl)cc1Nc1nccc(-c2cc(C#N)c3c(c2)C(C)(C)CN3)n1 [Compound 118] | – | 25.7 | 933 | > 10000 | – | – |
| Cc1cc(Br)c(Cl)cc1Nc1nccc(-c2cc(C#N)c3c(c2)C(C)(CO)CN3)n1 (stereo not drawn) [Compound 51] | 200 | 49 | 363 | > 10000 | – | – |
| CC1(CO)CNc2c(C#N)cc(-c3ccnc(Nc4cc(Cl)ccc4OC4CCN(C5CC5)CC4)n3)cc21 (stereo not drawn) [Compound 35] | 192 | 37.2 | 129 | 7080 | – | – |
| COCCOc1cc(C2CCOCC2)ccc1Nc1nccc(-c2cc(C#N)c3c(c2)[C@@](C)(CO)CN3)n1 [Compound 61] | – | 11 | 186 | > 10000 | – | – |
| COc1ccc(Cl)cc1Nc1ncc(F)c(-c2cc(C#N)c3c(c2)C(C)(CO)CN3)n1 (stereo not drawn) [Compound 47] | > 250 | 15.1 | 776 | > 10000 | – | – |
| COc1cc(C(=O)N2CC(O)C2)c(Cl)cc1Nc1nccc(-c2cc(C#N)c3c(c2)C(C)(C)CN3)n1 [Compound 110] | – | 4.2 | 193 | > 10000 | – | – |
| CC(C)Oc1ccc(C(F)(F)F)cc1Nc1nccc(-c2cc(C#N)c3c(c2)C(C)(CO)CN3)n1 (stereo not drawn) [Compound 76] | – | 186 | 2340 | > 10000 | – | – |
| COc1cc(C(=O)N2CC[C@@H]3CNC[C@@H]32)c(Cl)cc1Nc1nccc(-c2cc(C#N)c3c(c2)C(C)(C)CN3)n1 (relative stereo) [Compound 122] | – | 4.7 | 35 | ~4470 | – | – |
| COCCN1CCN(c2cc(OC)c(Nc3nccc(-c4cc(C#N)c5c(c4)C(C)(C)CN5)n3)cc2Cl)CC1 [Compound 89] | – | 20.9 | ~100 | > 10000 | – | – |
| COc1cc(C(=O)N2CC3CC(C2)C3O)c(Cl)cc1Nc1nccc(-c2cc(C#N)c3c(c2)C(C)(C)CN3)n1 (stereo not drawn) [Compound 120] | – | 15.5 | 25 | > 10000 | – | – |
| COc1cc(N2CCC(O)C2)c(Cl)cc1Nc1nccc(-c2cc(C#N)c3c(c2)C(C)(C)CN3)n1 (stereo not drawn) [Compound 97] | – | 45.7 | 59 | 4360 | – | – |
| COc1cc(C(=O)NC2CCC(O)C2)c(Cl)cc1Nc1nccc(-c2cc(C#N)c3c(c2)C(C)(C)CN3)n1 (stereo not drawn) [Compound 116] | – | 6.8 | – | – | > 10000 | 162 |
| COc1cc(C(=O)NC2CCC(O)C2)c(Cl)cc1Nc1nccc(-c2cc(C#N)c3c(c2)C(C)(C)CN3)n1 (stereo not drawn) [Compound 115] | – | 4.9 | 166 | > 10000 | – | – |

Continued by falling IC50 [1], values first:

| melting point [°C] | IC50 [1] [nM] | IC50 ([2]; Homo sapiens, JJN-3, 96 h) [nM] | IC50 ([3]; Homo sapiens, KMS-12-BM, 96 h) [nM] | IC50 [3] [nM] | IC50 [2] [nM] | SMILES |
| --- | --- | --- | --- | --- | --- | --- |
| 228 | 912 | – | – | – | – | C[C@]1(CO)CNc2c(C#N)cc(-c3ccnc(Nc4ccccc4P(C)(C)=O)n3)cc21 [Compound 62] |
| 112 | 403 | 3550 | > 10000 | – | – | CC(C)Oc1ccc(Cl)cc1Nc1nccc(-c2cc(C#N)c3c(c2)C(C)(C)CN3)n1 [Compound 102] |
| 183 | 309 | 4270 | > 10000 | – | – | CC(C)c1ccc(COc2cccc(Nc3nccc(-c4cc(C#N)c5c(c4)C(C)(CO)CN5)n3)c2)cc1 (stereo not drawn) [Compound 42] |
| – | 138 | 389 | > 10000 | – | – | COc1cc(N2CCC(OC)CC2)c(Cl)cc1Nc1nccc(-c2cc(C#N)c3c(c2)C(C)(C)CN3)n1 [Compound 92] |
| – | 129 | 105 | > 10000 | – | – | COc1cc(N2CCN(C3CC3)CC2)c(Cl)cc1Nc1nccc(-c2cc(C#N)c3c(c2)C(C)(C)CN3)n1 [Compound 98] |
| 171 | 91.2 | 1410 | > 10000 | – | – | COCCOc1ccc(Cl)cc1Nc1nccc(-c2cc(C#N)c3c(c2)C(C)(C)CN3)n1 [Compound 100] |
| – | 85.1 | 178 | > 10000 | – | – | COCc1cc(OC)c(Nc2nccc(-c3cc(C#N)c4c(c3)C(C)(C)CN4)n2)cc1Cl [Compound 88] |
| 152 | 53.7 | 676 | – | – | – | CNCCOc1ccc(Cl)cc1Nc1nccc(-c2cc(C#N)c3c(c2)C(C)(C)CN3)n1 [Compound 109] |
| – | 46.8 | 126 | ~2460 | – | – | COC(=O)c1cc(Nc2nccc(-c3cc(C#N)c4c(c3)C(C)(CO)CN4)n2)cc(C(F)(F)F)c1 (stereo not drawn) [Compound 77] |
| – | 11.5 | 83 | > 10000 | – | – | COc1cc(N2CCN(C(C)C)CC2)c(Cl)cc1Nc1nccc(-c2cc(C#N)c3c(c2)C(C)(C)CN3)n1 [Compound 93] |
| – | 9.8 | 166 | > 10000 | – | – | COCCN1CCC(c2cc(OC)c(Nc3nccc(-c4cc(C#N)c5c(c4)C(C)(C)CN5)n3)cc2C)CC1 [Compound 94] |
| – | 9.3 | 129 | > 10000 | – | – | COc1cc(OCCN2CCN(C)CC2)c(Cl)cc1Nc1nccc(-c2cc(C#N)c3c(c2)C(C)(C)CN3)n1 [Compound 95] |
| – | 9.1 | ~81 | > 10000 | – | – | COc1cc(S(C)(=O)=O)c(F)cc1Nc1nccc(-c2cc(C#N)c3c(c2)C(C)(C)CN3)n1 [Compound 96] |
| 168 | 8.3 | 219 | > 10000 | – | – | CNCCOc1ccc(Cl)cc1Nc1nccc(-c2cc(C#N)c3c(c2)C(C)(CO)CN3)n1 (stereo not drawn) [Compound 44] |
| – | 7.1 | 28 | 1380 | – | – | COc1cc(C(=O)N2CCCC(O)CC2)c(Cl)cc1Nc1nccc(-c2cc(C#N)c3c(c2)C(C)(C)CN3)n1 (stereo not drawn) [Compound 119] |
| 252 | 6.9 | – | – | – | – | CNC(=O)c1ccc(C)c(Nc2ncnc(-c3cc(C#N)c4c(c3)[C@@](C)(CO)CN4)n2)c1 [Compound 214] |
| 245 | 3.6 | 33 | 1260 | – | – | Cc1c(Nc2nccc(-c3cc(C#N)c4c(c3)C(C)(CO)CN4)n2)cc(Cl)cc1C(=O)N(C)C (stereo not drawn) [Compound 53] |
| 183 | 2.6 | 85 | 6760 | – | – | Cc1c(Nc2nccc(-c3cc(C#N)c4c(c3)C(C)(CO)CN4)n2)cc(Cl)cc1C(=O)N1CCN(C)CC1 (stereo not drawn) [Compound 58] |
| 206 | 2.2 | 19 | 490 | – | – | COc1cc(C(=O)N2CC3(CCNCC3)C2)c(Cl)cc1Nc1nccc(-c2cc(C#N)c3c(c2)C(C)(C)CN3)n1 [Compound 114] |
| – | 1.6 | 525 | 437 | – | – | COc1cc(C(=O)NC2CNCC2O)c(Cl)cc1Nc1nccc(-c2cc(C#N)c3c(c2)C(C)(C)CN3)n1 (mixture of isomers) [Compound 124] |
